Key:
Hepatotoxicity [1] = tested on: Hepatotoxicity;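 as to HepSE bilirubinemia: bilirubinemia hepatic side effect score drawn from the DILIps training data, a prediction system for drug-induced liver injury; call rule not given here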;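 as to HepSE cholecystitis: Cholecystitis-related hepatic side effect score drawn from the DILIps (drug-induced liver injury prediction) training data set; call rule not given here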;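 as to HepSE elevated liver function tests: hepatic side effect score for raised liver function tests, as recorded in the DILIps training set used for predicting drug-induced liver injury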; as to HepSE hepatic failure: call rule not given here;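 as to HepSE hepatomegaly: hepatic side effect score for hepatomegaly, taken from the training set of the DILIps drug-induced liver injury prediction system; call rule not given here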; as to HepSE liver disease: call rule not given here;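 as to HepSE liver function tests abnormal: hepatic side effect score taken from the DILIps (drug-induced liver injury prediction system) training data, here covering abnormal liver function test findings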
Hepatotoxicity [2] = tested on: Hepatotoxicity; remark: listed apart in the source;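 as to HepSE bilirubinemia: bilirubinemia hepatic side effect score drawn from the DILIps training data, a prediction system for drug-induced liver injury; call rule not given here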;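 as to HepSE cholecystitis: Cholecystitis-related hepatic side effect score drawn from the DILIps (drug-induced liver injury prediction) training data set; call rule not given here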;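 as to HepSE elevated liver function tests: hepatic side effect score for raised liver function tests, as recorded in the DILIps training set used for predicting drug-induced liver injury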; as to HepSE hepatic failure: call rule not given here;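 as to HepSE hepatomegaly: hepatic side effect score for hepatomegaly, taken from the training set of the DILIps drug-induced liver injury prediction system; call rule not given here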; as to HepSE liver disease: call rule not given here;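 as to HepSE liver function tests abnormal: hepatic side effect score taken from the DILIps (drug-induced liver injury prediction system) training data, here covering abnormal liver function test findings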
Hepatotoxicity [3] = tested on: Hepatotoxicity; remark: listed apart in the source;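 as to HepSE cholecystitis: Cholecystitis-related hepatic side effect score drawn from the DILIps (drug-induced liver injury prediction) training data set; call rule not given here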;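 as to HepSE elevated liver function tests: hepatic side effect score for raised liver function tests, as recorded in the DILIps training set used for predicting drug-induced liver injury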; as to HepSE hepatic failure: call rule not given here;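 as to HepSE hepatomegaly: hepatic side effect score for hepatomegaly, taken from the training set of the DILIps drug-induced liver injury prediction system; call rule not given here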; as to HepSE liver disease: call rule not given here;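 as to HepSE liver function tests abnormal: hepatic side effect score taken from the DILIps (drug-induced liver injury prediction system) training data, here covering abnormal liver function test findings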
Hepatotoxicity [4] = tested on: Hepatotoxicity; remark: listed apart in the source;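 as to HepSE cholecystitis: Cholecystitis-related hepatic side effect score drawn from the DILIps (drug-induced liver injury prediction) training data set; call rule not given here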;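 as to HepSE elevated liver function tests: hepatic side effect score for raised liver function tests, as recorded in the DILIps training set used for predicting drug-induced liver injury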; as to HepSE hepatic failure: call rule not given here;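 as to HepSE hepatomegaly: hepatic side effect score for hepatomegaly, taken from the training set of the DILIps drug-induced liver injury prediction system; call rule not given here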; as to HepSE liver disease: call rule not given here;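 as to HepSE liver function tests abnormal: hepatic side effect score taken from the DILIps (drug-induced liver injury prediction system) training data, here covering abnormal liver function test findings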
Hepatotoxicity [5] = tested on: Hepatotoxicity; remark: listed apart in the source; as to HepSE hepatic failure: call rule not given here; as to HepSE liver disease: call rule not given here
Hepatotoxicity [6] = tested on: Hepatotoxicity; remark: listed apart in the source; as to HepSE hepatic failure: call rule not given here; as to HepSE liver disease: call rule not given here
Hepatotoxicity [7] = tested on: Hepatotoxicity; remark: listed apart in the source
Hepatotoxicity [8] = tested on: Hepatotoxicity; remark: listed apart in the source
Hepatotoxicity [9] = tested on: Hepatotoxicity; remark: listed apart in the source
Hepatotoxicity [10] = tested on: Hepatotoxicity; remark: listed apart in the source
Hepatotoxicity [11] = tested on: Hepatotoxicity; remark: listed apart in the source
Hepatotoxicity [12] = tested on: Hepatotoxicity; remark: listed apart in the source
Hepatotoxicity [13] = tested on: Hepatotoxicity; remark: listed apart in the source
Hepatotoxicity [14] = tested on: Hepatotoxicity; remark: listed apart in the source

SMILES | HepSE_elevated liver function tests (Hepatotoxicity [1]) | HepSE_liver function tests abnormal (Hepatotoxicity [2]) | HepSE_cholecystitis (Hepatotoxicity [3]) | HepSE_hepatic failure (Hepatotoxicity [4]) | HepSE_liver disease (Hepatotoxicity [5]) | HepSE_hepatomegaly (Hepatotoxicity [6]) | HepSE_bilirubinemia (Hepatotoxicity [7]) | HepSE_cholelithiasis (Hepatotoxicity [8]) | HepSE_liver fatty (Hepatotoxicity [9]) | HepSE_Combined Scores (Hepatotoxicity [10]) | HepSE_cirrhosis (Hepatotoxicity [11]) | HepSE_hepatic necrosis (Hepatotoxicity [12]) | HepSE_jaundice (Hepatotoxicity [13]) | HepSE_hepatitis (Hepatotoxicity [14])
Nc1nc2ccc(OC(F)(F)F)cc2s1 [RILUZOLE] | 0 | 0 | 1 | 0 | 0 | 0 | 0 | 0 | 0 | 3 | 0 | 0 | 1 | 1
CC(N)C12CC3CC(CC(C3)C1)C2 (configuration not stated) [RIMANTADINE] | 0 | 0 | 0 | 0 | 0 | 0 | 0 | 0 | 0 | 0 | 0 | 0 | 0 | 0
CCC(=O)[C@@]1(C)[C@H](C)C[C@H]2[C@@H]3CCC4=CC(=O)C=C[C@]4(C)[C@H]3[C@@H](O)C[C@@]21C [RIMEXOLONE] | 0 | 0 | 0 | 0 | 0 | 0 | 0 | 0 | 0 | 0 | 0 | 0 | 0 | 0
O=P(O)(O)C(O)(Cc1cccnc1)P(=O)(O)O [RISEDRONIC ACID] | 0 | 0 | 0 | 0 | 0 | 0 | 0 | 0 | 0 | 0 | 0 | 0 | 0 | 0
Cc1nc2n(c(=O)c1CCN1CCC(c3noc4cc(F)ccc34)CC1)CCCC2 [RISPERIDONE] | 0 | 0 | 1 | 1 | 0 | 1 | 1 | 1 | 1 | 8 | 0 | 0 | 1 | 1
CCN(C)C(=O)Oc1cccc([C@H](C)N(C)C)c1 [RIVASTIGMINE] | 0 | 0 | 1 | 0 | 0 | 0 | 0 | 1 | 0 | 2 | 0 | 0 | 0 | 0
CN(C)CCc1c[nH]c2ccc(Cn3cncn3)cc12 [RIZATRIPTAN] | 0 | 0 | 0 | 0 | 0 | 0 | 0 | 0 | 0 | 0 | 0 | 0 | 0 | 0
C=CC[N+]1([C@H]2C[C@H]3[C@@H]4CC[C@H]5C[C@H](O)[C@@H](N6CCOCC6)C[C@]5(C)[C@H]4CC[C@]3(C)[C@H]2OC(C)=O)CCCC1 [ROCURONIUM] | 0 | 0 | 0 | 0 | 0 | 0 | 0 | 0 | 0 | 0 | 0 | 0 | 0 | 0
CS(=O)(=O)c1ccc(C2=C(c3ccccc3)C(=O)OC2)cc1 [ROFECOXIB] | 0 | 0 | 1 | 1 | 0 | 0 | 0 | 0 | 0 | 4 | 0 | 0 | 1 | 1
CCCN(CCC)CCc1cccc2c1CC(=O)N2 [ROPINIROLE] | 0 | 0 | 1 | 0 | 0 | 0 | 1 | 1 | 0 | 4 | 0 | 0 | 0 | 1
CCCN1CCCC[C@H]1C(=O)Nc1c(C)cccc1C [ROPIVACAINE] | 0 | 0 | 0 | 0 | 0 | 0 | 0 | 0 | 0 | 1 | 0 | 0 | 1 | 0
CN(CCOc1ccc(CC2SC(=O)NC2=O)cc1)c1ccccn1 (configuration not stated) [ROSIGLITAZONE] | 0 | 0 | 0 | 1 | 0 | 0 | 1 | 0 | 0 | 3 | 0 | 0 | 0 | 1
CC(C)c1nc(N(C)S(C)(=O)=O)nc(-c2ccc(F)cc2)c1/C=C/[C@@H](O)C[C@@H](O)CC(=O)O [ROSUVASTATIN] | 0 | 0 | 0 | 0 | 0 | 0 | 0 | 0 | 0 | 2 | 0 | 0 | 1 | 1
